# Assay results taken from patent US8604059B2, “Thioxanthene derivatives for the treatment of infectious diseases” (BKG Pharma APS, priority 2009, dated 2013).
# Where “and” joins values, the source holds several entries; their conditions need not be identical. Equal values may be shown once.
# Experiments:
# Gram negative sp. = assay: MIC on multiresistant and susceptible clinical isolates (Table 1b); format: cell-based; conditions: 8 multiresistant and 8 susceptible isolates
# Procedure: (§1) Cell growth was tested using the Minimal Inhibitory Concentration (MIC) susceptibility tests by use of the microdilution broth method in accordance to the NCCLS Guidelines (NCCLS Guidelines, Methods for Dilution Antimicrobial Susceptibility Tests for Bacteria That Grow Aerobically; Approved Standard, Sixth Edition, Volume 23; Number 2). The minimum inhibitory concentration (MIC), is defined as the lowest concentration of drug which inhibits growth of the test organism, in the sense that no visible growth is detected (total inhibition of growth). In example 2, MIC of the compounds used on fungal microorgansims was determined from the IC90 measurements according to NCCLS Guidelines.
# (§2) A log phase culture of bacteria was diluted with fresh pre-warmed Mueller-Hinton medium and adjusted to a defined OD at 600 nm in order to give a final concentration of 1×10^4-5 bacteria/ml medium. The bacterial culture was transferred to microtiter-plates and culture was added to each well. Drug was added to the bacterial culture in the wells as two-fold dilution series of drug in order to give final concentrations ranging from 0.03 to 128 μg/ml. Trays were incubated at 37° C. by shaking in a robot analyzer, PowerWavex, software KC^4′ Kebo. Lab, Copenhagen, for 16 h and optical densities were measured at 600 nm during the incubation time in order to record growth curves. Wells containing bacterial culture without drug were used as controls to ensure correct inoculum size and bacterial growth during the incubation. Cultures were tested in order to detect contaminations. Each experiment was repeated in triplicate. MIC values represent the mean values of two separate triplicate experiments. Intra- and interassay variation was <5%.
# (§3) Clinically relevant human bacterial isolates of Staphylococci, Streptococci, Micrococci and Gram negative species was cultured and assayed as described above for susceptibility towards the compounds listed in table 1b.
# [1] = test system: Staphylococci, Micrococci. Including MRSA; assay: as above; format: cell-based; conditions: Micrococci incl. MRSA, 8 multiresistant and 8 susceptible isolates
# Procedure: as §1, §2, §3
# Streptococci = assay: as above; format: cell-based; conditions: 8 multiresistant and 8 susceptible isolates
# Procedure: as §1, §2, §3
# [2] = test system: S. aureus MRSA clinical isolates; assay: FIC index, synergy with antibiotics (Table 4a); format: cell-based, Staphylococcus aureus; conditions: with Dicloxacillin; 8 MRSA; mean; compound at ¼ of MIC
# Procedure: The effect of the compounds was tested according to the methods described in WO2005/105145. In brief, cell growth was tested using the MIC susceptibility tests by use of the microdilution broth method in accordance to the NCCLS Guidelines (NCCLS Guidelines, Methods for Dilution Antimicrobial Susceptibility Tests for Bacteria That Grow Aerobically; Approved Standard, Sixth Edition, Volume 23; Number 2).
# The Fractional Inhibitory Concentration (FIC) index were calculated for each compound as described in WO2005/105145. Synergy was defined for Fractional Inhibitory Concentration (FIC) indices less than 0.5
# Staphylococcus aureus: 8 (MRSA) in vivo-selected clinical isolates. Resistant to methicillin and beta-lactam antibiotics. Susceptible to teicoplanin chloramphenicol, fosfomycin, netilmicin and vancomycin.
# [3] = test system: Enterococcus faecalis BG VSE-92; assay: Mouse peritonitis/sepsis model, NMRI mice; format: in vivo; conditions: 3.1 mg/kg s.c.
# Procedure: Mouse peritonitis/sepsis model.
# A clinical isolate of Enterococcus faecalis BG VSE-92 from human urine was used. This strain is a multiresistant isolate.
# Female NMRI mice (age, approximately 6 to 8 weeks; weight, 30±2 g) were used for the mouse […] peritonitis model (as described below).
# Bacterial suspensions were prepared from fresh overnight cultures (made from frozen stock cultures) on 5% blood agar plates as described above. The inoculum for the mouse peritonitis model was prepared immediately before use and was adjusted at 540 nm of giving a density of approximately 10^7 CFU/ml. The size of the inoculum was determined by viability counting on 5% blood agar.
# The mice were injected intraperitoneally with 0.5 ml of the enterococcal suspension, resulting in bacteremia within 1 h of inoculation. Antibiotic therapy was initiated 1 h after inoculation. N-dealkyl-Trans-clopenthixol was administered subcutaneously in the neck region in a volume of 0.7 ml per dose. Five mice were in each treatment group. Inoculated untreated control mice were included in all trials. (Method reference: Erlandsdottir et al; Antimicrob Agents Chemother. 2001 April; 45(4):1078-85)
# The effects of the various treatment regimens were determined during 5 h of treatment by evaluation of bacterial counts in the peritoneal fluid. The bactericidal efficacies of the treatment regimens in the mouse models were calculated by subtracting the results for each treated mouse from the mean results for control mice at the end of therapy (5 h). A decrease of one thousand times (3 log 10 steps) represents maximum effect in this model and sustains strong bacterial killing effect of the compound tested.
# strain IIIB of HIV-1 = assay: Inhibition of HIV-1 replication in MT4 cells, MTT assay; format: cell-based
# Procedure: The enhancing effect of compound 3 on anti-viral agents was studied by checkerboard combination studies exposing HIV infected cells to 0-3 μM anti-viral agent in the absence or presence of compound 3 in concentrations from 0 to 6 μM. Each experiment was repeated in tripleduplicate. MIC values represent the mean values of two separate experiments.
# The HIV-1 strain HTLV-IIIB were propagated in H9 cells at 37° C., 5% CO2 using RPMI 1640 with 10% heat-inactivated foetal calf serum (FCS) and antibiotics (growth medium). Culture supernatant was filtered ([…]), aliquotted, and stored at −80° C. until use. The HIV-1 strain was obtained from NIH AIDS Research and Reference Program.
# Compounds were examined for possible antiviral activity against strain IIIB of HIV-1 using MT4 cells as target cells. MT4 cells were incubated with virus (0.005 MOI) and growth medium containing the test dilutions of compound(s) for six days in parallel with virus-infected and uninfected control cultures without compound added. Expression of HIV in the cultures was indirectly quantified using the MTT assay as previously described. Compounds mediating less than 30% reduction of HIV expression were considered without biological activity. Compounds were tested in parallel for cytotoxic effect in uninfected MT4 cultures containing the test dilutions of compound as described above. Cultures for test of both antiviral activity and cytotoxic effect were set up in tripleduplicates, […] per culture in micro titre plates. A 30% inhibition of cell growth relative to control cultures was considered significant. The 50% inhibitory concentration was determined by interpolation from the plots of percent inhibition versus concentration of compound.
# EC50 is defined as the effective concentration that inhibits 50% of viral production, 50% of viral infectivity, or 50% of the virus-induced cytopathic effect.
smiles,measurement,setting,value
Clc1ccc2c(c1)/C(=C/CCC1CCNCC1)c1ccccc1S2 [Compound 3],MIC Mean,Gram negative sp.,3 µg/mL
same,MIC Mean,[1],0.25 µg/mL
same,MIC Mean,Streptococci,0.25 µg/mL
same,FIC index,[2],0.25
same,Decrease of number of bacteria per ml of peritoneal fluid,"[3]; 5 hours, vs control",3 log 10 steps
same,Bacteria survived after 5 hours,[3]; p<0.05,0.001%
same,CFU/ml - peritoneum,"[3]; treatment 0 and 1 hour, sampling 5 hours, individual mice",2.05E+06 CFU/ml and 2.90E+06 CFU/ml and 4.25E+06 CFU/ml
same,EC50,"strain IIIB of HIV-1; Human immunodeficiency virus 1, IIIB, 144 h, single agent, MT4 cells, six days, read-out: EC50",> 4 µM
same,Antiviral effect alone,strain IIIB of HIV-1; at the concentrations used,no antiviral or cytotoxic effect
same,Enhancement of the antiviral effect of AZT,strain IIIB of HIV-1; combination of compound 3 and AZT,5 time
